These are literature values, as cited in patent US20080207644A1, “Therapeutic materials and methods” (priority 2006, published 2008).

In one data set the test system is cancers. The conditions noted are these: for mouth sores as side effect: human studies; for results in human studies: single agents or combinations, treatment of a variety of cancers.
The conditions of data set [1]: oral doses of 10-100 mg/kg.
For data set [2] the following is noted: 30 mg/kg oral.
For data set [3], the system named is a variety of malignancies. The conditions noted are these: intravenous 0.7 to 1.3 mg/m^2/dose biweekly.

Regarding `CO[C@H]1C[C@@H]2CC[C@@H](C)[C@@](O)(O2)C(=O)C(=O)N2CCCC[C@H]2C(=O)O[C@H]([C@H](C)C[C@@H]2CC[C@@H](OP(C)(C)=O)[C@H](OC)C2)CC(=O)[C@H](C)/C=C(\C)[C@@H](O)[C@@H](OC)C(=O)[C@H](C)C[C@H](C)/C=C/C=C/C=C/1C` [AP23573], in the data set with cancers, the “mouth sores as side effect” value is given as “dose limiting toxicity” and the “results in human studies” value was “positive results”.
Regarding `Cc1ccc2nc(NCCN)c3ncc(C)n3c2c1` [BMS-345541], the “efficacy in mouse studies” value in data set [1] was “effective”.
For the molecule `COc1cccc2nc(-c3cccs3)nc(NN3C(=O)CC(C)C3=O)c12` (stereo not drawn) [SPC-839], the “oral efficacy in a rat model” value in data set [2] is “oral efficacy”.
Regarding `CC(C)C[C@H](NC(=O)[C@H](Cc1ccccc1)NC(=O)c1cnccn1)B(O)O` [Velcade], the activity against malignancies result in data set [3] is reported as “activities against a variety of malignancies”.
For `CO[C@H]1C[C@@H]2CC[C@@H](C)[C@@](O)(O2)C(=O)C(=O)N2CCCC[C@H]2C(=O)O[C@H]([C@H](C)C[C@@H]2CC[C@@H](OCCO)[C@H](OC)C2)CC(=O)[C@H](C)/C=C(\C)[C@@H](O)[C@@H](OC)C(=O)[C@H](C)C[C@H](C)/C=C/C=C/C=C/1C` [everolimus], in the data set on cancers, the “mouth sores as side effect” value was “dose limiting toxicity” and the “results in human studies” value is listed as “positive results”.
Turning to `CO[C@H]1C[C@@H]2CC[C@@H](C)[C@@](O)(O2)C(=O)C(=O)N2CCCC[C@H]2C(=O)O[C@H]([C@H](C)C[C@@H]2CC[C@@H](OC(=O)C(C)(CO)CO)[C@H](OC)C2)CC(=O)[C@H](C)/C=C(\C)[C@@H](O)[C@@H](OC)C(=O)[C@H](C)C[C@H](C)/C=C/C=C/C=C/1C` [temsirolimus], in the data set on cancers, the “mouth sores as side effect” value is reported as “dose limiting toxicity” and the “results in human studies” value is on record as “positive results”.
